Assay results published in patent US20230322779A1 (priority 2020, published 2023).
Like-named read-outs stand apart in the source and are kept apart here.

What was measured:
[1] = test system: SARS-CoV-2 (βCoV/KOR/KCDC03/2020); assay: Dose-response curve analysis by immunofluorescence, anti-SARS-CoV-2 activity in Calu-3 cells; format: cell-based
[2] = test system: SARS-CoV-2 nLUC reporter virus; assay: microbe, parasite or virus in culture; format: cell-based; conditions: for antiviral activity against SARS-CoV-2 reporter virus in A549-hACE2 cells: 10 to 0.002 μM
Calu-3 cells = assay: Cell viability by nucleus counting in the Calu-3 dose-response assay; conditions: 0.0025 to 50 μM
in vitro = conditions: human, A549-hACE2 cells, uninfected
SARS-CoV-2 B.1.1.7 = assay: SARS-CoV-2 in primary human bronchial cells at air liquid interface (HAEC-ALI), vRNA of apical wash by RT-qPCR; format: cell-based
[3] = Severe acute respiratory syndrome coronavirus 2, 48 h

## FC(F)(F)c1nc(C(F)(F)F)c2ccc3nc(-c4nnco4)cn3c2n1 [Example 9, 2-(2,4-bis(trifluoromethyl)imidazo[1′2′:1,6]pyrido[2,3-d]pyrimidin-8-yl)-1,3,4-oxadiazole]
[1]
  antiviral activity against SARS-CoV-2 in Calu-3 cells: activity in the μM range
[2]
  antiviral activity against SARS-CoV-2 reporter virus in A549-hACE2 cells: has antiviral activity against SARS-CoV-2 reporter virus when used in the μM range
[2]; [3]
  IC50: > 1 µM
Calu-3 cells
  toxicity in Calu-3 cells: Neither compound showed toxicity
In vitro
  CC50 at 48 h: > 10 µM

## FC(F)(F)c1cc(C(F)(F)F)c2ccc3nc(-c4nnco4)cn3c2n1 [Example 1, 2-[2,4-bis(trifluoromethyl)imidazo[1,2-a]1,8-naphthyridin-8-yl]-1,3,4-oxadiazole]
[1]
  antiviral activity against SARS-CoV-2 in Calu-3 cells: activity in the μM range
SARS-CoV-2 B.1.1.7; 0.37 μM and lower, HAEC-ALI
  inhibition of vRNA in apical wash fluid: No inhibition was observed
SARS-CoV-2 B.1.1.7; 1.1 μM, day 9, HAEC-ALI
  inhibition of vRNA in apical wash fluid: statistically significant inhibition
SARS-CoV-2 B.1.1.7; 3 μM, day 4-11, HAEC-ALI
  inhibition of vRNA in apical wash fluid: statistically significant inhibition
SARS-CoV-2 B.1.1.7; 10 μM, all timepoints (day 2-11), HAEC-ALI
  inhibition of vRNA in apical wash fluid: statistically significant inhibition
SARS-CoV-2 B.1.1.7; primary human bronchial cells, air liquid interface
  antiviral against SARS-CoV-2 (overall, HAEC-ALI): antiviral against SARS-CoV-2 when used in the μM range
[2]
  IC50: 1.71 µM
  antiviral activity against SARS-CoV-2 reporter virus in A549-hACE2 cells: has antiviral activity against SARS-CoV-2 reporter virus when used in the μM range
[2]; [3]
  IC50: > 1 µM
Calu-3 cells
  toxicity in Calu-3 cells: Neither compound showed toxicity
In vitro
  CC50 at 48 h: > 10 µM

## N#C[C@@]1(c2ccc3c(N)ncnn23)O[C@H](CO)[C@@H](O)[C@H]1O [GS-441524, reference compound]
SARS-CoV-2 B.1.1.7; 3 μM, all timepoints (day 2-11), HAEC-ALI
  inhibition of vRNA in apical wash fluid: statistically significant inhibition
